Measured values: patent US20220409535A1, “BIOLOGICAL AGENT-EXOSOME COMPOSITIONS AND USES THEREOF” (The University of North Carolina at Chapel Hill, priority 2016, published 2022)
In brackets after ≈: the same amount, converted by molar mass.

Key:
[1] = test system: sigma receptor; experiment: Receptor competitive inhibition by free anisamide; format: cell-based, murine; conditions: 3LL-M27 cells, one hour
Protocol: Receptor Competitive Inhibition. To determine whether AA-vectorized exosomes to sigma receptor were accumulated in cancer cells via receptor-mediated endocytosis, a receptor competitive inhibition study was carried out. For this purpose, first a lipophilic fluorescent dye, DiL, was incorporated into exosome membranes. Briefly, the supernatant of RAW 264.7 macrophage conditioned media free of cells and cellular debris was filtered with a 0.22 μm PES filter and incubated with DiL dye (4 μM) at 37° C. for 20 min. Following a 20-minute incubation, ExoQuick-TC™ exosome precipitation solution was added to the filtered supernatant, the mixture was vortexed, and incubated overnight at 4° C. Then, the mixture was vortexed again and subsequently centrifuged at 1500×g for 30 minute to pellet exosomes. The supernatant was discarded and the exosome pellet was re-suspended in PBS. Freshly-prepared fluorescently labeled exosomes or exosomes stored at −20° C. were used for all experiments.
Next, 3LL-M27 cells were seeded overnight at 50,000 cells/well in a 96-well plate. […] The fluorescence levels in cell suspensions were measured by a Shimadzu RF5000 fluorescent spectrophotometer, and adjusted for protein content analyzed by BCA Assay using the Pierce BCA Protein Assay Kit (Thermo Fisher Scientific, Waltham, Mass., USA). […]

[2] = test system: MDCK wt; experiment: In vitro cytotoxicity (MTT), MDCK wt; format: cell-based, canine; conditions: Canis lupus familiaris, 48 hours
Protocol: (§1) Briefly, cancer cells (MDCKMDR1, MDCKwt, and 3LL-M27) were seeded at 5,000 cells/well in 100 μL of media in 96-well plates overnight. […] Following the incubation, the cells were washed and incubated with MTT reagent as described in Batrakova et al., Mol. Pharm. 3:113 (2006) Epub 2006/04/04. The cytotoxic activity of PTX was then evaluated using a standard MTT assay (Ferrari et al., J. Immunol. Meth. 131:165 (1990)). The absorbance at 570 nm was measured using a Shimadzu RF5000 fluorescent spectrophotometer. The survival values were determined in relation to control cells cultured in drug-free media. All experiments were repeated at least three times. SEM values were less than 10%.

[3] = test system: 3LL-M27; experiment: In vitro cytotoxicity (MTT), 3LL-M27; format: cell-based, murine; conditions: Mus musculus; 3LL-M27, 48 hours
Protocol: as §1

[4] = test system: MDCK MDR1; experiment: In vitro cytotoxicity (MTT), MDCK MDR1; format: cell-based, canine; conditions: Canis lupus familiaris; MDCK MDR1, 48 hours
Protocol: as §1

Row | Structure (SMILES) | competitive inhibition of uptake by free AA [1] | IC50 [2] [µg/mL] | IC50 [3] [µg/mL] | IC50 [4] [µg/mL]
1 | COc1ccc(C(N)=O)cc1 [free AA, anisamide] | not able completely inhibit exosome uptake |  |  | 
2 | CC(=O)O[C@H]1C(=O)[C@@]2(C)[C@H]([C@H](OC(=O)c3ccccc3)[C@]3(O)C[C@H](OC(=O)[C@H](O)[C@@H](NC(=O)c4ccccc4)c4ccccc4)C(C)=C1C3(C)C)[C@]1(OC(C)=O)CO[C@@H]1C[C@@H]2O [PTX, paclitaxel] |  | 0.429 ± 0.0634 (≈ 0.502 µM) | 0.126 ± 0.0313 (≈ 0.148 µM) | > 10
